# Values of other authors, collected in PubChem BioAssay AID1259410 (Chemical Carcinogenesis Research Information System (CCRIS), 2018).
# System: rodent tumor promotion studies, tumor incidence
# Assay: CCRIS tumor promotion studies
smiles,measurement,setting,value
O=C(O)c1cc(=O)[nH]c(=O)[nH]1,outcome,"Carcinogen: 1,2-DIMETHYLHYDRAZINE DIHYDROCHLORIDE, 306-37-6, Doses [Carcinogen]: 100 MG/KG ONCE 18 HR AFTER 2/3 PARTIAL HEPATECTOMY, Doses [Promoter]: 0, 1% IN DIET FOR 10 WK BEGINNING 1 WK POST CARCINOGEN DOSE (STUDY DURATION: 54 WK), Route [Carcinogen]: INTRAPERITONEAL, Route [Promoter]: ORAL, Species: RAT, Strain/Sex: F344/MALE",liver: hepatocellular carcinoma
same,outcome,"Carcinogen: 1,2-DIMETHYLHYDRAZINE DIHYDROCHLORIDE, 306-37-6, Doses [Carcinogen]: 100 MG/KG ONCE 18 HR AFTER 2/3 PARTIAL HEPATECTOMY, Doses [Promoter]: 0, 1% IN DIET FOR 20 WK BEGINNING 1 WK POST CARCINOGEN DOSE (STUDY DURATION: 54 WK), Route [Carcinogen]: INTRAPERITONEAL, Route [Promoter]: ORAL, Species: RAT, Strain/Sex: F344/MALE",liver: hepatocellular carcinoma
same,outcome,"Carcinogen: 1,2-DIMETHYLHYDRAZINE DIHYDROCHLORIDE, 306-37-6, Doses [Carcinogen]: 100 MG/KG ONCE 18 HR AFTER 2/3 PARTIAL HEPATECTOMY, Doses [Promoter]: 0, 1% IN DIET FOR 29 WK BEGINNING 1 WK POST CARCINOGEN DOSE (STUDY DURATION: 54 WK), Route [Carcinogen]: INTRAPERITONEAL, Route [Promoter]: ORAL, Species: RAT, Strain/Sex: F344/MALE",liver: hepatocellular carcinoma
same,outcome,"Carcinogen: 1,2-DIMETHYLHYDRAZINE DIHYDROCHLORIDE, 306-37-6, Doses [Carcinogen]: 100 MG/KG ONCE 18 HR AFTER 2/3 PARTIAL HEPATECTOMY, Doses [Promoter]: 0, 1% IN DIET FOR 40 WK BEGINNING 1 WK POST CARCINOGEN DOSE (STUDY DURATION: 54 WK), Route [Carcinogen]: INTRAPERITONEAL, Route [Promoter]: ORAL, Species: RAT, Strain/Sex: F344/MALE",liver: hepatocellular carcinoma
same,outcome,"Carcinogen: 1,2-DIMETHYLHYDRAZINE DIHYDROCHLORIDE, Doses [Carcinogen]: 100 MG/KG ONCE, 18 HR AFTER PARTIAL HEPATECTOMY, Doses [Promoter]: 1% IN DIET FOR 10 OR 13 MO BEGINNING 1 WK AFTER INITIATION, Route [Carcinogen]: INTRAPERITONEAL, Route [Promoter]: ORAL, Species: RAT, Strain/Sex: F344/MALE",liver: hepatocellular carcinoma
same,outcome,"Carcinogen: 1,2-DIMETHYLHYDRAZINE, 540-73-8, Doses [Carcinogen]: 100 MG/KG ONCE 18 HR AFTER TWO-THIRDS PARTIAL HEPATECTOMY, Doses [Promoter]: 0, 1% IN DIET BEGINNING 1 WK POST CARCINOGEN DOSE (STUDY DURATION: 54 WK), Route [Carcinogen]: INTRAPERITONEAL, Route [Promoter]: ORAL, Species: RAT, Strain/Sex: F344/MALE",liver: hepatocellular carcinoma
same,outcome,"Carcinogen: DIETHYLNITROSAMINE, 55-18-5, Doses [Carcinogen]: 200 MG/KG BW ONCE, Doses [Promoter]: 0, 1% IN DIET FOR 4 WK BEGINNING 1 WK POST CARCINOGEN DOSE, PARTIAL HEPATECTOMY PERFORMED AT END OF SECOND WK (STUDY DUR, Route [Carcinogen]: INTRAPERITONEAL, Route [Promoter]: ORAL, Species: RAT, Strain/Sex: F344/MALE",liver: carcinoma
same,outcome,"Carcinogen: DIETHYLNITROSAMINE, 55-18-5, Doses [Carcinogen]: 200 MG/KG ONCE, Doses [Promoter]: 0, 1% IN DIET BEGINNING 1 WK POST CARCINOGEN DOSE (STUDY DURATION: 60 WK), Route [Carcinogen]: INTRAPERITONEAL, Route [Promoter]: ORAL, Species: RAT, Strain/Sex: F344/MALE",liver: hepatocellular carcinoma
same,outcome,"Carcinogen: DIETHYLNITROSAMINE, 55-18-5, Doses [Carcinogen]: 200 MG/KG ONCE, Doses [Promoter]: 0, 1% IN DIET BEGINNING 5 WK POST CARCINOGEN DOSE (STUDY DURATION: 60 WK), Route [Carcinogen]: INTRAPERITONEAL, Route [Promoter]: ORAL, Species: RAT, Strain/Sex: F344/MALE",liver: hepatocellular carcinoma
same,outcome,"Carcinogen: N-NITROSO(2-HYDROXYPROPYL)(2-OXOPROPYL)AMINE, 61499-28-3, Doses [Carcinogen]: 170 MG/KG (TOTAL DOSE) ADMINISTERED CONTINUOUSLY OVER 9 D VIA OSMOTIC PUMP, Doses [Promoter]: 0, 1% IN DIET BEGINNING 2 WK POST CARCINOGEN TREATMENT AND CONTINUING FOR DURATION OF STUDY (STUDY DURATION: 29 WK), Route [Carcinogen]: SUBCUTANEOUS IMPLANT, Route [Promoter]: ORAL, Species: HAMSTER, Strain/Sex: SYRIAN/FEMALE","pancreas: papillary adenocarcinoma, carcinoma in situ"
same,outcome,"Carcinogen: N-NITROSO(2-HYDROXYPROPYL)(2-OXOPROPYL)AMINE, 61499-28-3, Doses [Carcinogen]: 170 MG/KG (TOTAL DOSE) INFUSED CONTINUOUSLY FOR 9 D, Doses [Promoter]: 0, 1% IN DIET FOR DURATION OF STUDY BEGINNING 2 WK POST CARCINOGEN TREATMENT (STUDY DURATION: 28 WK), Route [Carcinogen]: SUBCUTANEOUS, Route [Promoter]: ORAL, Species: HAMSTER, Strain/Sex: SYRIAN/FEMALE","pancreas: carcinoma in situ, adenocarcinoma"
same,outcome,"Carcinogen: N-NITROSO(2-HYDROXYPROPYL)(2-OXOPROPYL)AMINE, 61499-28-3, Doses [Carcinogen]: 400 MG/KG (TOTAL DOSE) ADMINISTERED CONTINUOUSLY BY OSMOTIC PUMP FOR 14 D, Doses [Promoter]: 0, 1% IN DIET FOR 15 WK BEGINNING 2 WK PRIOR TO CARCINOGEN TREATMENT (STUDY DURATION: 29 WK), Route [Carcinogen]: SUBCUTANEOUS, Route [Promoter]: ORAL, Species: RAT, Strain/Sex: SPRAGUE-DAWLEY/MALE",kidney: tumor; lung: adenoma
same,outcome,"Carcinogen: N-NITROSO(2-HYDROXYPROPYL)(2-OXOPROPYL)AMINE, 61499-28-3, Doses [Carcinogen]: 400 MG/KG VIA OSMOTIC PUMP CONTINUOUSLY FOR 14 D, Doses [Promoter]: 0, 1% IN DIET 2 WK PRIOR TO AND 13 WK POST CARCINOGEN TREATMENT (STUDY DURATION: 27 WK), Route [Carcinogen]: SUBCUTANEOUS, Route [Promoter]: ORAL, Species: RAT, Strain/Sex: CD-1/MALE",kidney: tumor; lung: adenoma
Cc1c(C)c2c(c(C)c1O)CCC(C)(CCCC(C)CCCC(C)CCCC(C)C)O2 (stereo unspecified),outcome,"Carcinogen: 7,12-DIMETHYLBENZ[A]ANTHRACENE, 57-97-6, Doses [Carcinogen]: 10 NMOL IN 0.2 ML ACETONE ONCE, Doses [Promoter]: 0, 80 UMOL IN 0.2 ML ACETONE 2/WK BEGINNING 1 WK POST CARCINOGEN DOSE AND CONTINUING FOR 19 WK (STUDY DURATION: 20 WK), Route [Carcinogen]: DERMAL, Route [Promoter]: DERMAL, Species: MOUSE, Strain/Sex: SENCAR/FEMALE",skin: papilloma
CCCCCCCCCCCCCC1(CC(=O)OC2C(C)C3(O)C(C=C(CO)CC4(O)C(=O)C(C)=CC43)C3C(C)(C)C23OC(C)=O)OCC(C)(C)N1[O] (stereo unspecified),outcome,"Carcinogen: 7,12-DIMETHYLBENZ[A]ANTHRACENE, 57-97-6, Doses [Carcinogen]: 100 NMOL ONCE, Doses [Promoter]: 0, 5 NMOL 2/WK FOR 36 WK BEGINNING 1 WK POST CARCINOGEN DOSE (STUDY DURATION: 25 WK), Route [Carcinogen]: DERMAL, Route [Promoter]: DERMAL, Species: MOUSE, Strain/Sex: NMRI/FEMALE",skin: tumor
C[C@H](CCC(=O)O)[C@H]1CC[C@H]2[C@@H]3CC[C@@H]4C[C@H](O)CC[C@]4(C)[C@H]3CC[C@]12C,outcome,"Carcinogen: 3-METHYLCHOLANTHRENE, 56-49-5, Doses [Carcinogen]: 3 MG IN BEESWAX PELLET, Doses [Promoter]: 0, 3 MG IN BEESWAX PELLET (STUDY DURATION: 5 MO), Route [Carcinogen]: IMPLANT, Route [Promoter]: IMPLANT, Species: HAMSTER",gallbladder: tumor
same,outcome,"Doses [Carcinogen]: IR, Route [Carcinogen]: RECTAL, Route [Promoter]: RECTAL, Species: RAT, Strain/Sex: MALE,FEMALE",colon
Oc1ccc(Cl)cc1,outcome,"Carcinogen: 7,12-DIMETHYLBENZ(A)ANTHRACENE, Doses [Carcinogen]: TOP, Route [Carcinogen]: DERMAL, Route [Promoter]: DERMAL, Species: MOUSE, Strain/Sex: FEMALE",integumentary system (skin)
Cc1cccc(C)c1NC1=NCCCS1,outcome,"Carcinogen: N-BIS(2-HYDROXYPROPYL)NITROSAMINE, 53609-64-6, Doses [Carcinogen]: 2,400 MG/KG ONCE, Doses [Promoter]: 0, 1,000 PPM IN DIET FOR 52 WK BEGINNING 1 WK POST CARCINOGEN DOSE (STUDY DURATION: 28 WK), Route [Carcinogen]: SUBCUTANEOUS, Route [Promoter]: ORAL, Species: RAT, Strain/Sex: F344/MALE",thyroid gland: follicular cell adenoma or carcinoma
same,outcome,"Carcinogen: N-NITROSOBIS(2-HYDROXYPROPYL)AMINE [53609-64-6], Doses [Carcinogen]: 2400 MG/KG IN SALINE ONCE, Doses [Promoter]: 0, 250, 500, 1000 PPM IN DIET FOR 26 WK, BEGINNING 1 WK AFTER CARCINOGEN DOSE (STUDY DURATION: 27 WK), Doses [Promoter]: 0, 250, 500, 1000 PPM IN DIET FOR 26 WK, BEGINNING 1 WK AFTER CARCINOGEN DOSE (STUDY DURATION: 27 WK), Route [Carcinogen]: SUBCUTANEOUS, Route [Promoter]: ORAL, Species: RAT, Strain/Sex: F344/MALE","thyroid gland: follicular cell hyperplasia, follicular cell adenoma"
same,outcome,"Carcinogen: N-NITROSOBIS(2-HYDROXYPROPYL)AMINE, 53609-64-6, Doses [Carcinogen]: 2400 MG/KG IN SALINE ONCE, Doses [Promoter]: 0, 1,000 PPM IN FEED FOR 52 WK BEGINNING 1 WK POST CARCINOGEN TREATMENT (STUDY DURATION: 53 WK), Route [Carcinogen]: SUBCUTANEOUS, Route [Promoter]: ORAL, Species: RAT, Strain/Sex: F344/MALE",thyroid: adenoma and carcinoma
